# Assay results as given in PubChem BioAssay (NCI).
#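 In this assay, cells in 96-well plates receive the compound at five concentrations for 48 hours. Endpoints are linearly interpolated between the surrounding concentrations. GI50 is the concentration that inhibits growth by half. TGI: total growth inhibition.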
# Columns and labels:
# Test in all cases: NCI tumour cell line growth inhibition, 48 h
# [1] = test system: MCF7 breast
# [2] = test system: MDA-MB-231 breast
# [3] = test system: MDA-MB-435
# [4] = test system: MDA-N
# [5] = test system: PC-3 prostate
# [6] = test system: HOP-18 NSCLC
# [7] = test system: RXF-631 renal
# [8] = test system: M19-MEL melanoma
# [9] = test system: P388 leukemia
# [10] = test system: P388/ADR leukemia
# [11] = test system: SN12K1 renal
Structure (SMILES),TGI [1],TGI [2],TGI [3],TGI [4],TGI [5],TGI [6],TGI [8],further results
CC(=S)NC1C(Oc2ccc3c(C)cc(=O)oc3c2)OC(CO)C(O)C1O (centres undefined),> 100 µM,> 100 µM,> 100 µM,> 100 µM,> 100 µM,–,–,–
COc1cccc(C(=O)C(O)c2cccc(OC)c2OC)c1OC (centres undefined),> 100 µM,> 100 µM,> 100 µM,> 100 µM,> 100 µM,–,–,–
COc1nc(NC2OCC(OC(C)=O)C(OC(C)=O)C2OC(C)=O)c(N=C(C)C(C)=O)c(=O)n1C (centres undefined),–,–,–,–,–,> 100 µM,–,TGI [7]: > 100 µM
C[Si](C)(C)C1=C2C(=O)c3ccccc3C(=O)C2=C([Si](C)(C)C)[C@@H]2CCCC[C@H]12,> 100 µM,> 100 µM,> 100 µM,> 100 µM,> 100 µM,–,–,–
CCC1OC(=O)C(C)C(OC2CC(C)(O)C(O)C(C)O2)C(C)C(O)C(C)(O)CC(C)C(=O)C(C)C(O)C1C (centres undefined),> 300 µM,–,–,–,–,> 300 µM,> 300 µM,TGI [9]: > 300 µM; TGI [10]: > 300 µM; TGI [11]: > 300 µM
CN1C(=N\S(=O)(=O)c2ccc(Cl)cc2)/C(=N/N=P(c2ccccc2)(c2ccccc2)c2ccccc2)c2ccccc21,–,–,–,–,–,–,> 100 µM,TGI [7]: > 100 µM
Cc1cccc2ns[s+]c12,–,–,–,–,–,> 100 µM,–,–
O=C(Cl)c1cc([N+](=O)[O-])cc([N+](=O)[O-])c1,–,–,–,–,–,–,> 100 µM,–
CN(C)CCCn1c2c(c3ccncc3c1=O)C(=O)c1ccccc1-2,14 µM,7.7 µM,4.15 µM,–,9.78 µM,–,–,GI50 [1]: 0.333 µM; GI50 [2]: 1.77 µM; GI50 [3]: 1.55 µM; GI50 [5]: 1.14 µM
CN(C)CCCN1c2ccc3ccccc3c2Sc2cccc(Cl)c21,–,8.07 µM,3.88 µM,5.51 µM,11.8 µM,–,–,–
O=C(CCc1nnc2s/c(=C\c3ccc(Cl)cc3Cl)c(=O)n12)Nc1cc(Cl)c(Cl)cc1Cl,–,–,–,–,–,> 100 µM,> 100 µM,GI50 [6]: > 100 µM; GI50 [8]: > 100 µM; TGI [7]: > 100 µM
